The values below come from patent US20070275969A1, “NANOPARTICLES FOR ORAL ADMINISTRATION OF PHARMACEUTICAL AGENTS OF LOW SOLUBILITY” (priority 1995, published 2007).

Data set [1] is described as follows: aqueous solubility of the active agent. The class given is physicochemical. The note with it: pH 7.4. The procedure: (§1) Since then several types of HIV-1 protease inhibitors have become known. […] The latter effect is presently attributed to the extremely low aqueous solubility (8 mg/1000 ml at pH 7.4).
A further data set can be described thus: oral bioavailability. The settings on record: in vivo. The procedure:
as §1

Data set [2] in a line: half-life in in-vivo pharmaceutical models (mouse). The settings on record: some in-vivo pharmaceutical models (mouse). Here is the method:
as §1

The compound `COc1ccc(C[C@H](C[C@H](O)[C@H](Cc2ccccc2)NC(=O)OC(C)(C)C)C(=O)N[C@H](C(=O)N[C@@H](Cc2ccccc2)C(=O)N2CCOCC2)C(C)C)cc1` [HIV-1 protease inhibitor (A), 5(S)-tert.-Butoxycarbonyl-amino-4(S)-hydroxy-2(R)-4-methoxyphenylmethyl-6-phenyl-hexanoyl-(L)-Val-(L)-Phe-morpholin-4-ylamide] gave an aqueous solubility in data set [1] of 8 mg/1000 ml. Moreover, in “oral bioavailability”, the oral bioavailability result is recorded as “insufficient oral bioavailability”. Also, the half-life entry in data set [2] is given as “relatively short half-life”.
